Assay results: patent US6191282A, “Substituted 5-membered ring heterocycles comprising a bicyclic or tricyclic group their preparation and their use” (Hoechst Marion Roussel, priority 1993, dated 2001)
pIC50: −log10 of the molar value. Counter-ions that a name gives are not always drawn. Like-named read-outs stand apart in the source and are kept apart here.

Tested on: gel-filtered human thrombocytes
Experiment: Inhibition of the aggregation of gel-filtered human thrombocytes following stimulation with ADP or thrombin (Test method 1)
Format: cell-based
Conditions: 1 mg/ml fibrinogen, 37° C., GFP from 2-4 donors
Description: As a functional test, measurement is made of the inhibition of the aggregation of gel-filtered human thrombocytes, following stimulation with ADP or thrombin, by the compounds according to the invention.
For this purpose, human thrombocytes were isolated from platelet-rich plasma (PRP) by gel filtration on Sepharose 2 B. The resulting suspension of gel-filtered platelets (GFP), which contained 3×10^8 platelets/ml, was activated in the presence of 1 mg/ml of fibrinogen either with 10 μM ADP or with 0.1 U/ml thrombin, and stirred in an aggregometer (PAP 4, Biodata, Hatboro, Penna., USA) at 37° C. and at 1000 revolutions per minute. The maximum increase in the translucency is taken as a measure of the aggregation. The test substances were added to the GFP at 37° C. and 2 min before activating with ADP or thrombin.

[1] = Homo sapiens, ADP-stimulated (10 μM ADP), read-out: IC50, inhibition of thrombocyte aggregation, ADP-stimulated
[2] = Homo sapiens, Thrombin-stimulated (0.1 U/ml thrombin), read-out: IC50, inhibition of thrombocyte aggregation, Thrombin-stimulated
[3] = ADP-stimulated (10 μM ADP), read-out: IC50, inhibition of thrombocyte aggregation, ADP-stimulated
[4] = Thrombin-stimulated (0.1 U/ml thrombin), read-out: IC50, inhibition of thrombocyte aggregation, Thrombin-stimulated

Compound	pIC50 [1]	pIC50 [2]	pIC50 [3]	pIC50 [4]
CCCCCC(=O)NC(CNC(=O)CN1C(=O)NC(C)(c2ccc(C(=N)N)cc2)C1=O)C(=O)O (racemic) [Example 30, (R,S)-3-(((R,S)-4-(4-(Aminoiminomethyl)phenyl)-4-methyl-2,5-dioxoimidazolidin-1-yl)acetylamino)-2-pentylcarbonylaminopropionic acid]	6.30	6.40		
CCCCCC(=O)NC(CNC(=O)CN1C(=O)N(C)C(C)(c2ccc(C(=N)N)cc2)C1=O)C(=O)O (racemic) [Example 31, (R,S)-3-(((R,S)-4-(4-(Aminoiminomethyl)phenyl)-3,4-dimethyl-2,5-dioxoimidazolidin-1-yl)acetylamino)-2-pentylcarbonylaminopropionic acid]	5.52	6.22		
CCCCS(=O)(=O)NC(CNC(=O)CN1C(=O)N(C)C(C)(c2ccc(C(=N)N)cc2)C1=O)C(=O)O (racemic) [Example 33, (R,S)-3-(((R,S)-4-(4-(Aminoiminomethyl)phenyl)-3,4-dimethyl-2,5-dioxoimidazolidin-1-yl)acetylamino)-2-butylsulphonylaminopropionic acid]	6.30	6.70		
CC1(c2ccc(C(=N)N)cc2)NC(=O)N(CC(=O)NC(CS(=O)(=O)NC(=O)Nc2ccccc2)C(=O)OCc2ccccc2)C1=O (racemic) [Example 34, 2-((R,S)-4-(4-Aminoiminomethyl)phenyl)-4-methyl-2,5-dioxoimidazolidin-1-yl)-N-((R,S)-1-benzyloxycarbonyl-2-(3-phenylureidosulphonyl)ethyl)acetamide]	5.60	5.82		
CC1(c2ccc(C(=N)N)cc2)NC(=O)N(CC(=O)NC(CC(=O)O)c2cccc(Oc3ccccc3)c2)C1=O (racemic) [Example 43, (R,S)-3-(((R,S)-4-(4-(Aminoiminomethyl)phenyl)-4-methyl-2,5-dioxoimidazolidin-1-yl)acetylamino)-3-(3-phenoxyphenyl)propionic acid]	6.30	6.30		
COc1cc(C(CC(=O)O)NC(=O)CN2C(=O)NC(C)(c3ccc(C(=N)N)cc3)C2=O)cc(OC)c1OC (racemic) [Example 44, (R,S)-3-(((R,S)-4-(4-(Aminoiminomethyl)phenyl)-4-methyl-2,5-dioxoimidazolidin-1-yl)acetylamino)-3-(3,4,5-trimethoxyphenyl)propionic acid]	6.40	6.70		
CC1(c2ccc(C(=N)N)cc2)NC(=O)N(CC(=O)NC(CC(=O)O)C2CCCCC2)C1=O (racemic) [Example 49, (R,S)-3-(((R,S)-4-(4-(Aminoiminomethyl)phenyl)-4-methyl-2,5-dioxoimidazolidin-1-yl)acetylamino)-3-cyclohexylpropionic acid]	6.22	6.70		
CN1C(=O)N(CC(=O)NC(CC(=O)O)c2ccccc2)C(=O)C1(C)c1ccc(C(=N)N)cc1 (racemic) [Example 50, (R,S)-3-(((R,S)-4-(4-(Aminoiminomethyl)phenyl)-3,4-dimethyl-2,5-dioxoimidazolidin-1-yl)acetylamino)-3-phenylpropionic acid]	6.26	6.40		
CCN1C(=O)N(CC(=O)NC(CC(=O)O)c2ccccc2)C(=O)C1(C)c1ccc(C(=N)N)cc1 (racemic) [Example 52, (R,S)-3-(((R,S)-4-(4-(Aminoiminomethyl)phenyl)-3-ethyl-4-methyl-2,5-dioxoimidazolidin-1-yl)acetylamino)-3-phenylpropionic acid]	6.30	6.40		
CC1(c2ccc(C(=N)N)cc2)NC(=O)N(CC(=O)N[C@H](CC(=O)O)c2ccccc2)C1=O (single isomer, unassigned) [Example 59, (R)-3-(((S or R)-4-(4-(aminoiminomethyl)phenyl)-4-methyl-2,5-dioxoimidazolidin-1-yl)acetylamino)-3-phenylpropionic acid]			4.30	4.40
CC1(c2ccc(C(=N)N)cc2)NC(=O)N(CC(=O)N[C@H](CC(=O)O)c2ccccc2)C1=O (single isomer, unassigned) [Example 60, (R)-3-(((R or S)-4-(4-(aminoiminomethyl)phenyl)-4-methyl-2,5-dioxoimidazolidin-1-yl)acetylamino)-3-phenylpropionic acid]			5.30	5.40
CC1(c2ccc(C(=N)N)cc2)NC(=O)N(CC(=O)NC[C@H](NC(=O)OCc2ccccc2)C(=O)O)C1=O (stereo partly drawn) [Example 6, 3-(((R,S)-4-(4-(Aminoiminomethyl)phenyl)-4-methyl-2,5-dioxoimidazolidin-1-yl)acetylamino)-2-benzyloxycarbonylaminopropionic acid]	5.60	6.10		
CC1(c2ccc(C(=N)N)cc2)NC(=O)N(CC(=O)NC[C@H](N)C(=O)O)C1=O (stereo partly drawn) [Example 7, 2-Amino-3-(((R,S)-4-(4-(aminoiminomethyl)-phenyl)-4-methyl-2,5-dioxoimidazolidin-1-yl)acetylamino)propionic acid hydrochloride]	6.52	6.52		
CC1(c2ccc(CN)cc2)NC(=O)N(CC(=O)N[C@@H](CC(=O)O)C(=O)N[C@H](C(=O)O)c2ccccc2)C1=O (stereo partly drawn) [Example 8, ((R,S)-4-(4-(Aminomethyl)phenyl)-4-methyl-2,5-dioxoimidazolidin-1-yl)acetyl-L-aspartyl-L-phenylglycine]	6.82	7.00		

Continued by rising pIC50 [1], values first:

pIC50 [1]	pIC50 [2]	pIC50 [3]	pIC50 [4]	Compound
6.52	6.46			CC1(c2ccc(C(=N)N)cc2)NC(=O)N(CC(=O)NC(CC(=O)O)c2cccc3ccccc23)C1=O (racemic) [Example 38, (R,S)-3-(((R,S)-4-(4-(Aminoiminomethyl)phenyl)-4-methyl-2,5-dioxoimidazolidin-1-yl)acetylamino)-3-(1-naphthyl)propionic acid]
6.52	6.70			CC1(c2ccc(C(=N)N)cc2)NC(=O)N(CC(=O)NC(CC(=O)O)c2cccc(C(=O)O)c2)C1=O (racemic) [Example 42, (R,S)-3-(((R,S)-4-(4-(Aminoiminomethyl)phenyl)-4-methyl-2,5-dioxoimidazolidin-1-yl)acetylamino)-3-(3-hydroxycarbonylphenyl)propionic acid]
6.70	6.82			CCCCS(=O)(=O)NC(CNC(=O)CN1C(=O)NC(C)(c2ccc(C(=N)N)cc2)C1=O)C(=O)O (racemic) [Example 32, (R,S)-3-(((R,S)-4-(4-(Aminoiminomethyl)phenyl)-4-methyl-2,5-dioxoimidazolidin-1-yl)acetylamino)-2-butylsulphonylaminopropionic acid]
6.70	6.82			COc1cc(C(CC(=O)O)NC(=O)CN2C(=O)NC(C)(c3ccc(C(=N)N)cc3)C2=O)ccc1O (racemic) [Example 36, (R,S)-3-(((R,S)-4-(4-(Aminoiminomethyl)phenyl)-4-methyl-2,5-dioxoimidazolidin-1-yl)acetylamino)-3-(4-hydroxy-3-methoxyphenyl)propionic acid]
6.70	6.70			CC1(c2ccc(C(=N)N)cc2)NC(=O)N(CC(=O)NC(CC(=O)O)c2ccc(O)cc2)C1=O (racemic) [Example 45, (R,S)-3-(((R,S)-4-(4-(Aminoiminomethyl)phenyl)-4-methyl-2,5-dioxoimidazolidin-1-yl)acetylamino)-3-(4-hydroxyphenyl)priopionic acid]
7.00	6.52			COc1ccc(C(CC(=O)O)NC(=O)CN2C(=O)NC(C)(c3ccc(C(=N)N)cc3)C2=O)cc1O (racemic) [Example 35, (R,S)-3-(((R,S)-4-(4-(Aminoiminomethyl)phenyl)-4-methyl-2,5-dioxoimidazolidin-1-yl)acetylamino)-3-(3-hydroxy-4-methoxyphenyl)propionic acid]
7.00	6.70			CCOc1ccc(C(CC(=O)O)NC(=O)CN2C(=O)NC(C)(c3ccc(C(=N)N)cc3)C2=O)cc1 (racemic) [Example 37, (R,S)-3-(((R,S)-4-(4-(Aminoiminomethyl)phenyl)-4-methyl-2,5-dioxoimidazolidin-1-yl)acetylamino)-3-(4-ethoxyphenyl)propionic acid]
7.00	6.82			CC1(c2ccc(C(=N)N)cc2)NC(=O)N(CC(=O)NC(CC(=O)O)c2cccc(OCc3ccccc3)c2)C1=O (racemic) [Example 41, (R,S)-3-(((R,S)-4-(4-(Aminoiminomethyl)phenyl)-4-methyl-2,5-dioxoimidazolidin-1-yl)acetylamino)-3-(3-benzyloxyphenyl)propionic acid]
7.00	6.82			CC1(c2ccc(C(=N)N)cc2)NC(=O)N(CC(=O)NC(CC(=O)O)c2cccnc2)C1=O (racemic) [Example 47, (R,S)-3-(((R,S)-4-(4-(Aminoiminomethyl)phenyl)-4-methyl-2,5-dioxoimidazolidin-1-yl)acetylamino)-3-(3-pyridyl)propionic acid]
7.10	6.70			CC1(c2ccc(C(=N)N)cc2)NC(=O)N(CC(=O)NC(CC(=O)O)c2ccc3c(c2)OCO3)C1=O (racemic) [Example 67, (R,S)-3-(((R,S)-4-(4-(aminoiminomethyl)phenyl)-4-methyl-2,5-dioxoimidazolidin-1-yl)acetylamino)-3-(3,4-methylenedioxyphenyl)propionic acid]
